The assay deals with T1, ALK2 (Homo sapiens, UniProt Q04771).
T1 construct: purchased ThermoFisher Scientific (Life Technologies)
T1 sequence (Q04771 21-509): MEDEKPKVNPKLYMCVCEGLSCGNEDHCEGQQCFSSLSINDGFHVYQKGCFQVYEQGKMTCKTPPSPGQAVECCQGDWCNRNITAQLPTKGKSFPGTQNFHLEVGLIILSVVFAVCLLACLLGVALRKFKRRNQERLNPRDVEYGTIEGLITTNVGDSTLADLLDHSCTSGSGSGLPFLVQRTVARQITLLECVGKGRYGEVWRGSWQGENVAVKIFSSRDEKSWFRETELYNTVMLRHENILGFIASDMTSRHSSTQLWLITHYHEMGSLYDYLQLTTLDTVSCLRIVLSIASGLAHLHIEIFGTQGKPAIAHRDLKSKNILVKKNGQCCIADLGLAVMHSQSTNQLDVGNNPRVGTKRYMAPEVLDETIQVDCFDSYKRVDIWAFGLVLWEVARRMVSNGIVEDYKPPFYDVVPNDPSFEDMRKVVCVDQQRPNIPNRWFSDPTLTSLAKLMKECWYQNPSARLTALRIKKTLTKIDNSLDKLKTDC
In words: LanthaScreen Eu Kinase Binding Assay, ALK2 inhibition. The settings on record: 1 micromolar concentration. The protocol: Biochemical assays to measure the inhibitory effects of the compounds were performed by ThermoFisher Scientific (Life Technologies). ALK2 inhibition was tested using LanthaScreen™ Eu Kinase Binding Assay screening protocol.

Bounds are passed on as bounds.

Take `C=C(C)c1nc(Nc2cn(-c3cc(OC)c(OC)c(OC)c3)cn2)c2cc(OC)c(OC)cc2n1` [Compound 65c, 6,7-dimethoxy-2-(prop-1-en-2-yl)-N-(1-(3,4,5-trimethoxyphenyl)-1H-imidazol-4-yl)quinazolin-4-amine]: the inhibition – broadly, the share of the control response that was lost under treatment – at 1 µM was < 50%. The figure for `COc1cc(-n2cnc(Nc3nc(C(C)C)nc4ncccc34)c2)cc(OC)c1OC` [Compound 102e, 2-isopropyl-N-(1-(3,4,5-trimethoxyphenyl)-1H-imidazol-4-yl)pyrido[2,3-d]pyrimidin-4-amine] is > 50%; for `COc1cc(-n2cnc(Nc3nc(C4CC4)c4cnn(C(C)C)c4n3)c2)cc(OC)c1OC` [Compound 13b, 4-cyclopropyl-1-isopropyl-N-(1-(3,4,5-trimethoxyphenyl)-1H-imidazol-4-yl)-1H-pyrazolo[3,4-d]pyrimidin-6-amine] it is > 50%.

For the compound `C=C(C)c1nc(Nc2cn(-c3cc(OC)c(OC)c(OC)c3)cn2)c2sccc2n1` [Compound 51c, 2-(prop-1-en-2-yl)-N-(1-(3,4,5-trimethoxyphenyl)-1H-imidazol-4-yl)thieno[3,2-d]pyrimidin-4-amine], the inhibition at 1 µM is > 50%. Take `COc1cc(-n2cnc(Nc3nc(C(C)C)nc4c3cnn4-c3ccc(F)cc3)c2)cc(OC)c1OC` [Compound 1f, 1-(4-fluorophenyl)-6-isopropyl-N-(1-(3,4,5-trimethoxyphenyl)-1H-imidazol-4-yl)-1H-pyrazolo[3,4-d]pyrimidin-4-amine]: the inhibition at 1 µM was > 50%. Take `CC[C@@H](C)n1ncc2c(Nc3cn(-c4cc(OC)c(OC)c(OC)c4)cn3)nc(C(C)C)nc21` (single isomer, unassigned) [Compound 19d]: the inhibition at 1 µM was > 50%. As for `COc1cc(-n2cnc(Nc3nc(C(C)C)c4cnn(C(C)C)c4n3)c2)cc(OC)c1OC` [Compound 8b, 1,4-diisopropyl-N-(1-(3,4,5-trimethoxyphenyl)-1H-imidazol-4-yl)-1H-pyrazolo[3,4-d]pyrimidin-6-amine], the figure is > 50%. The figure for `COc1cc(-n2cnc(Nc3nc(C=C(C)C)nc4c3cnn4C(C)C)c2)cc(OC)c1OC` [Compound 5b, 1-isopropyl-6-(2-methylprop-1-en-1-yl)-N-(1-(3,4,5-trimethoxyphenyl)-1H-imidazol-4-yl)-1H-pyrazolo[3,4-d]pyrimidin-4-amine] is > 50%; for `COc1cc(-n2cnc(Nc3nc(C(C)C)nc4c3cnn4C(C)C)c2)cc(OC)c1OC` [Compound 4a, 1,6-diisopropyl-N-(1-(3,4,5-trimethoxyphenyl)-1H-imidazol-4-yl)-1H-pyrazolo[3,4-d]pyrimidin-4-amine] it is > 50%.

With `CCn1ncc2c(Nc3cn(-c4cc(OC)c(OC)c(OC)c4)cn3)nc(C3CC3)nc21` [Compound 113d, 6-cyclopropyl-1-ethyl-N-(1-(3,4,5-trimethoxyphenyl)-1H-imidazol-4-yl)-1H-pyrazolo[3,4-d]pyrimidin-4-amine], the inhibition at 1 µM was > 50%.

As to `COc1cc(-n2cnc(Nc3nc(C4CC4)nc4c3cnn4C(C)(C)C)c2)cc(OC)c1OC` [Compound 112d, 1-(tert-butyl)-6-cyclopropyl-N-(1-(3,4,5-trimethoxyphenyl)-1H-imidazol-4-yl)-1H-pyrazolo[3,4-d]pyrimidin-4-amine], the inhibition at 1 µM is > 50%.

As to `COc1cc(-n2cnc(Nc3nc(C(F)(F)F)nc4[nH]ncc34)c2)cc(OC)c1OC` [Compound 25b, 6-(trifluoromethyl)-N-(1-(3,4,5-trimethoxyphenyl)-1H-imidazol-4-yl)-1H-pyrazolo[3,4-d]pyrimidin-4-amine], the inhibition at 1 µM is > 50%.

In the case of `C=C(C)c1nc(Nc2cn(-c3cc(OC)c(OC)c(OC)c3)cn2)nc2ccsc12` [Compound 53c, 4-(prop-1-en-2-yl)-N-(1-(3,4,5-trimethoxyphenyl)-1H-imidazol-4-yl)thieno[3,2-d]pyrimidin-2-amine], the inhibition at 1 µM was > 50%. As for `COc1cc(-n2cnc(Nc3nc(C4CCN(C)C4)nc4c3cnn4C(C)C)c2)cc(OC)c1OC` (stereo not shown) [Compound 101b, 1-isopropyl-6-(1-methylpyrrolidin-3-yl)-N-(1-(3,4,5-trimethoxyphenyl)-1H-imidazol-4-yl)-1H-pyrazolo[3,4-d]pyrimidin-4-amine], the figure is > 50%. As for `C=C(C)c1nc2c(c(Nc3cn(-c4cc(OC)c(OC)c(OC)c4)cn3)n1)CCC2` [Compound 60c, 2-(prop-1-en-2-yl)-N-(1-(3,4,5-trimethoxyphenyl)-1H-imidazol-4-yl)-6,7-dihydro-5H-cyclopenta[d]pyrimidin-4-amine], the figure is > 50%; as for `COc1cc(-n2cnc(Nc3nc(CC(C)C)nc4c3CCC4)c2)cc(OC)c1OC` [Compound 127b, 2-isobutyl-N-(1-(3,4,5-trimethoxyphenyl)-1H-imidazol-4-yl)-6,7-dihydro-5H-cyclopenta[d]pyrimidin-4-amine], > 50%; as for `COc1cc(-n2cnc(Nc3nc(C4CCC4)nc4c3cnn4C(C)C)c2)cc(OC)c1OC` [Compound 35d, 6-cyclobutyl-1-isopropyl-N-(1-(3,4,5-trimethoxyphenyl)-1H-imidazol-4-yl)-1H-pyrazolo[3,4-d]pyrimidin-4-amine], > 50%.

For `C=C(C)c1nc(Nc2cn(-c3cc(OC)c(OC)c(OC)c3)cn2)nc2sccc12` [Compound 90b, 4-(prop-1-en-2-yl)-N-(1-(3,4,5-trimethoxyphenyl)-1H-imidazol-4-yl)thieno[2,3-d]pyrimidin-2-amine], the inhibition at 1 µM is > 50%. As for `COc1cc(-n2cnc(Nc3nc(C(C)C)nc4c3cnn4CC3CC3)c2)cc(OC)c1OC` [Compound 17c, 1-(cyclopropylmethyl)-6-isopropyl-N-(1-(3,4,5-trimethoxyphenyl)-1H-imidazol-4-yl)-1H-pyrazolo[3,4-d]pyrimidin-4-amine], the figure is > 50%. As for `COc1cc(-n2cnc(Nc3nc(C4CC4)nc4c3cnn4C)c2)cc(OC)c1OC` [Compound 114e, 6-cyclopropyl-1-methyl-N-(1-(3,4,5-trimethoxyphenyl)-1H-imidazol-4-yl)-1H-pyrazolo[3,4-d]pyrimidin-4-amine], the figure is > 50%.

For `COc1cc(-n2cnc(Nc3nc(C(C)C)nc4c3COC4)c2)cc(OC)c1OC` [Compound 72a, 2-isopropyl-N-(1-(3,4,5-trimethoxyphenyl)-1H-imidazol-4-yl)-5,7-dihydrofuro[3,4-d]pyrimidin-4-amine], the inhibition at 1 µM is > 50%.

Regarding `COc1cc(-n2cnc(Nc3nc(C(C)C)nc4c3CCNC4)c2)cc(OC)c1OC` [Compound 86a, 2-isopropyl-N-(1-(3,4,5-trimethoxyphenyl)-1H-imidazol-4-yl)-5,6,7,8-tetrahydropyrido[3,4-d]pyrimidin-4-amine], the inhibition at 1 µM is > 50%. As for `CC[C@H](C)n1ncc2c(Nc3cn(-c4cc(OC)c(OC)c(OC)c4)cn3)nc(C(C)C)nc21` (single isomer, unassigned) [Compound 22d], the figure is > 50%; as for `COc1cc(-n2cnc(Nc3nc(C4CCCCC4)c4cnn(C(C)C)c4n3)c2)cc(OC)c1OC` [Compound 12b, 4-cyclohexyl-1-isopropyl-N-(1-(3,4,5-trimethoxyphenyl)-1H-imidazol-4-yl)-1H-pyrazolo[3,4-d]pyrimidin-6-amine], > 50%; as for `COc1cc(-n2cnc(Nc3nc(C(C)(C)C)nc4c3cnn4C(C)C)c2)cc(OC)c1OC` [Compound 32d, 6-(tert-butyl)-1-isopropyl-N-(1-(3,4,5-trimethoxyphenyl)-1H-imidazol-4-yl)-1H-pyrazolo[3,4-d]pyrimidin-4-amine], > 50%. As to `COc1cc2nc(C(C)C)nc(Nc3cn(-c4cc(OC)c(OC)c(OC)c4)cn3)c2cc1OC` [Compound 79a, 2-isopropyl-6,7-dimethoxy-N-(1-(3,4,5-trimethoxyphenyl)-1H-imidazol-4-yl)quinazolin-4-amine], the inhibition at 1 µM is < 50%. Turning to `COc1cc(-n2cnc(Nc3nc(C)nc4c3cnn4C(C)C)c2)cc(OC)c1OC` [Compound 31b, 1-isopropyl-6-methyl-N-(1-(3,4,5-trimethoxyphenyl)-1H-imidazol-4-yl)-1H-pyrazolo[3,4-d]pyrimidin-4-amine], the inhibition at 1 µM was > 50%. As to `COc1cc(-n2cnc(Nc3nc(C4CCCC4)nc4c3cnn4C(C)C)c2)cc(OC)c1OC` [Compound 44e, 6-cyclopentyl-1-isopropyl-N-(1-(3,4,5-trimethoxyphenyl)-1H-imidazol-4-yl)-1H-pyrazolo[3,4-d]pyrimidin-4-amine], the inhibition at 1 µM is > 50%. In the case of `COc1cc(-n2cnc(Nc3nc(C(C)C)nc4c3cnn4CC(C)C)c2)cc(OC)c1OC` [Compound 20c, 1-isobutyl-6-isopropyl-N-(1-(3,4,5-trimethoxyphenyl)-1H-imidazol-4-yl)-1H-pyrazolo[3,4-d]pyrimidin-4-amine], the inhibition at 1 µM was > 50%. The figure for `COc1cc(-n2cnc(Nc3nc(C(C)(C)C)c4cnn(C(C)C)c4n3)c2)cc(OC)c1OC` [Compound 9b, 4-(tert-butyl)-1-isopropyl-N-(1-(3,4,5-trimethoxyphenyl)-1H-imidazol-4-yl)-1H-pyrazolo[3,4-d]pyrimidin-6-amine] is > 50%; for `COc1cc(-n2cnc(Nc3nc(C(C)C)nc4c3OCC4)c2)cc(OC)c1OC` [Compound 69a, 2-isopropyl-N-(1-(3,4,5-trimethoxyphenyl)-1H-imidazol-4-yl)-6,7-dihydrofuro[3,2-d]pyrimidin-4-amine] it is > 50%.

For the origin of these results see US20240270750A1, “IMIDAZOLE-CONTAINING INHIBITORS OF ALK2 KINASE” (BioCryst Pharmaceuticals, Inc., priority 2021, published 2024).
